Experimental data reported in patent US20070231374A1, “Composition Comprising Ether Lipid” (priority 2003, published 2007).

Columns and labels:
[1] = stated as known; cited from earlier work
[2] = Phase diagram of GEO/water mixtures (polarising microscope, small angle x-ray diffraction); format: physicochemical; details: mixtures with water, FIG. 1
Experimental: Mixtures of glyceryl-1-monooleate ether (GEO) with water were prepared, shaken and allowed to equilibrate at a known temperature. The phase(s) of the resulting mixture were examined under the polarising microscope and by small angle x-ray diffraction.
At higher water content, both the L2 and the HII phases were stable in the presence of excess water.

SMILES	stable phase in excess water [1]	water concentration at which reversed hexagonal (HII) phase forms [2]
CCCCCCCC/C=C\CCCCCCCCOCC(O)CO (stereo not drawn) [GEO, Glyceryl-1-monooleate ether]	reversed hexagonal	> 15%
CCCCCCCC/C=C\CCCCCCCC(=O)OCC(O)CO (stereo not drawn) [GMO, glyceryl monooleate]	reversed cubic	–
